Literature values in patent US20070009589A1, “EXTENDED RELEASE COMPOSITIONS” (priority 2005, published 2007).

Columns and labels:
[1] = in water

Row | water solubility [1] | Log P | SMILES
1 | freely soluble in water |  | COCCc1ccc(OCC(O)CNC(C)C)cc1 (racemic) [Metoprolol succinate, (±)-1-(isopropylamino)-3-[p-(2-methoxyethyl)phenoxy]-2-propanol succinate (2:1)]
2 | low water solubility | 2.48 | COCCc1ccc(OCC(O)CNC(C)C)cc1 (stereo not drawn) [Metoprolol]
